The source made the active and inactive calls. No rule for the calls is given here.
Key:
[1] = target: T1, Serine/threonine-protein kinase Chk1 (Homo sapiens, UniProt O14757)
T1 sequence (O14757 whole entry): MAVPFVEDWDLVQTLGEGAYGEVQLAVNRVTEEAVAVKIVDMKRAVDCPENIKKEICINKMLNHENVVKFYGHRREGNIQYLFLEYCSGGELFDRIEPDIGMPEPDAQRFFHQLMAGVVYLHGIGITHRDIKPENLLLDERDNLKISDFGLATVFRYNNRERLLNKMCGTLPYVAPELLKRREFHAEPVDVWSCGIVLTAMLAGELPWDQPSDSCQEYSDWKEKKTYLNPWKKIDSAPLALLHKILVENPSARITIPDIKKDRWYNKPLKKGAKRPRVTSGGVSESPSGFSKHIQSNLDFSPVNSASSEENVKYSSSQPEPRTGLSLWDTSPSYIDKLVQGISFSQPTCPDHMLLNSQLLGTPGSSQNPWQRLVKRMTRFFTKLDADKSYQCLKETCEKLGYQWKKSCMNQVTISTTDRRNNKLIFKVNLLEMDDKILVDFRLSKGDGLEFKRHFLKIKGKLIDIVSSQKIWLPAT
Description: Inhibition of CHK1 assessed as inhibition of substrate phosphorylation using fluorescent peptide substrate by microplate reader assay

[2] = target: Serine/threonine-protein kinase Chk2 (Homo sapiens, UniProt O96017)
Description: Inhibition of CHK2 assessed as inhibition of substrate phosphorylation using fluorescent peptide substrate by microplate reader assay

[3] = target: Ribosomal protein S6 kinase alpha-3 (Homo sapiens, UniProt P51812)
Description: Inhibition of RSK2 assessed as inhibition of substrate phosphorylation using fluorescent peptide substrate by microplate reader assay

[4] = target: T2, Aurora kinase A (Homo sapiens) (UniProt O14965); assay: Inhibition of Aurora kinase A assessed as inhibition of substrate phosphorylation using fluorescent peptide substrate up to 100 uM by microplate reader assay
T2 sequence (whole entry): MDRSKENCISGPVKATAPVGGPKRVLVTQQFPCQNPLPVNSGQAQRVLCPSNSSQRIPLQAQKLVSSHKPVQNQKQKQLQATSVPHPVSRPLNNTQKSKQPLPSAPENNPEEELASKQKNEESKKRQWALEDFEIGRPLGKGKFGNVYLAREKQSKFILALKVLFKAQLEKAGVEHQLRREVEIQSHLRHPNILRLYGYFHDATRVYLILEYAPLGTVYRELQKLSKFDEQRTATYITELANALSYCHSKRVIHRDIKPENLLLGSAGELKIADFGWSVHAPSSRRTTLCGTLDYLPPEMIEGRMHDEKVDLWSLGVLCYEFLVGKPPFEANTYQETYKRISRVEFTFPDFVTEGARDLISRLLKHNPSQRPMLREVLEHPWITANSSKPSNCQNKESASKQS

Serine/threonine-protein kinase Chk2, sequence (O96017 whole entry): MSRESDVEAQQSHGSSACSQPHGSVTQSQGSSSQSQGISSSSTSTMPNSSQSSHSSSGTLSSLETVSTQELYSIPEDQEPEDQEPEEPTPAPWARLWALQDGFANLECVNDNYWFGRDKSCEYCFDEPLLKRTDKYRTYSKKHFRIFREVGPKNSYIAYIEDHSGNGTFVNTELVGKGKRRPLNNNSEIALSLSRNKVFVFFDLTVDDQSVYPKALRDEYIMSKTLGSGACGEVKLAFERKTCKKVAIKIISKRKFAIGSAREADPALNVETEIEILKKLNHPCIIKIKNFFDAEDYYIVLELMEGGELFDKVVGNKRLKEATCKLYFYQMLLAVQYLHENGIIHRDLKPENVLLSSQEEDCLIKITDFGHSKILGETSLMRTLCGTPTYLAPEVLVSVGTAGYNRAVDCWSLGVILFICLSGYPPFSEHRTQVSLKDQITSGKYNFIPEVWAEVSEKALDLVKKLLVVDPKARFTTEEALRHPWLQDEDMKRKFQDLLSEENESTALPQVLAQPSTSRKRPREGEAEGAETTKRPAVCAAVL
Ribosomal protein S6 kinase alpha-3, sequence (P51812 whole entry): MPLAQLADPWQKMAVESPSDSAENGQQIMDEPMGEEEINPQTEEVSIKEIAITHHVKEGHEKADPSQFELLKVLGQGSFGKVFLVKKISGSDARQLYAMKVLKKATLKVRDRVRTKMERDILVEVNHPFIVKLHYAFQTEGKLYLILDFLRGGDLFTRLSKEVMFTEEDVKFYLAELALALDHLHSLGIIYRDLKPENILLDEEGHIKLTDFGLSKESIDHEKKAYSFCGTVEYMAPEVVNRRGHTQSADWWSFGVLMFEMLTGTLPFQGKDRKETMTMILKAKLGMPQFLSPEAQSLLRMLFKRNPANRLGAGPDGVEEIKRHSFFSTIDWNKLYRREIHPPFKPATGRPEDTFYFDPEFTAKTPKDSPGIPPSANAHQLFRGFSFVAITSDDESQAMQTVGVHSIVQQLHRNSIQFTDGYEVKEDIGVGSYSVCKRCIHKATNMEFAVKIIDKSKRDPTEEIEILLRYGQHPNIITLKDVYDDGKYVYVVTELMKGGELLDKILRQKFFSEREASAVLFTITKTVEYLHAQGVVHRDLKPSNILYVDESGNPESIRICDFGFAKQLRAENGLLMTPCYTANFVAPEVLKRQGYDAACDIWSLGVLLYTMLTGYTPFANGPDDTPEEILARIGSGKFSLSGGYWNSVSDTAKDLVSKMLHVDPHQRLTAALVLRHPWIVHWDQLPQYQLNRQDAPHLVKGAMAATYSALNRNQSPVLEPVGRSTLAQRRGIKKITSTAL

Compound | IC50 [1] [µM] | IC50 [2] [µM] | IC50 [3] [µM] | inhibition [4]
COc1cc([N+](=O)[O-])c(OC)cc1-c1nc2sccn2c1/C=N/NC(=N)N | > 100 | 96 | 3.58 | 
N=C(N)N/N=C/c1c(-c2ccc(Cl)cc2)nc2sc(Cl)cn12 | > 7900 | 49.3 | 14 | 
O=Cc1c(-c2ccccc2F)nc2sccn12 |  |  |  | inactive
COc1cc([N+](=O)[O-])c(OC)cc1-c1nc2sc(Cl)cn2c1/C=N/NC(=N)N/N=C/c1c(-c2cc(OC)c([N+](=O)[O-])cc2OC)nc2sc(Cl)cn12 | > 100 | > 100 | 11.4 | 
N=C(N)N/N=C/c1c(-c2ccc(N)cc2)nc2sccn12 | > 100 | 67.5 | 3 | 
N#Cc1ccc(-c2nc3sc(Cl)cn3c2C=O)cc1 |  |  |  | inactive
Cc1cn2c(C=O)c(-c3ccc(F)c([N+](=O)[O-])c3)nc2s1 |  |  |  | inactive
Cc1cn2c(/C=N/NC3=NCCN3)c(-c3ccc(Cl)c([N+](=O)[O-])c3)nc2s1 | > 100 | > 100 | 20.5 | 
Clc1cc(-c2cn3ccccc3n2)c(Cl)s1 |  |  |  | inactive
COc1cc([N+](=O)[O-])c(OC)cc1-c1cn2nc(C)sc2n1 |  |  |  | inactive
Cc1cn2c(/C=N/NC(=N)NN)c(-c3ccc(Cl)c([N+](=O)[O-])c3)nc2s1 | > 100 | > 100 | 18 | 
Fc1ccc(-c2cn3ccsc3n2)cc1F |  |  |  | inactive
N=C(N)N/N=C\c1c(-c2cccc([N+](=O)[O-])c2F)nc2sccn12 |  | > 100 | > 100 | inactive
COc1cc([N+](=O)[O-])c(OC)cc1-c1nc2ccccn2c1C=O |  |  |  | inactive
N=C(N)N/N=C/c1c(-c2ccc(Cl)c([N+](=O)[O-])c2)nc2ccccn12 | > 100 | 79 | 2.89 | 
Fc1cc(F)c(-c2cn3ccsc3n2)cc1F |  |  |  | inactive
Cc1cn2c(/C=N/NC(=N)N)c(-c3cccc([N+](=O)[O-])c3)nc2s1 | > 100 | 59 | 17.5 | 
Fc1ccc(-c2cn3cc(Cl)sc3n2)cc1 |  |  |  | inactive
Cc1sc2nc(-c3cc([N+](=O)[O-])c(Cl)cc3Cl)c(/C=N/NC(=N)N)n2c1C |  | > 100 | 98.5 | 
Clc1cc(-c2nc3sc4ccccc4n3c2/C=N/NC2=NCCN2)c(Cl)s1 |  | > 100 | > 100 | inactive
N=C(N)N/N=C\c1c(-c2ccccc2)nc2sc(N)nn12 |  |  |  | inactive
Cc1cn2c(/C=N/NC(=N)N)c(-c3cc(Cl)sc3Cl)nc2s1 | > 100 | > 100 | 26.5 | 
Cc1cn2c(/C=N/NC(=N)N)c(-c3cc([N+](=O)[O-])c(Cl)cc3Cl)nc2s1 | > 100 | > 100 | 4.53 | 
O=Cc1c(-c2c(F)cccc2F)nc2sccn12 |  |  |  | inactive
O=Cc1c(-c2ccc(F)cc2)nc2sc(Cl)cn12 |  |  |  | inactive
O=[N+]([O-])c1cc(-c2cn3ccsc3n2)ccc1F |  |  |  | inactive

Compound | IC50 [1] [µM] | IC50 [2] [µM] | IC50 [3] [µM] | inhibition [4]
N=C(N)N/N=C\c1c(-c2ccccc2F)nc2sccn12 |  | > 100 | > 100 | inactive
N=C(N)N/N=C/c1c(-c2ccc([N+](=O)[O-])cc2)nc2sccn12 | > 100 | > 100 | 5.66 | 
N=C(N)N/N=C/c1c(-c2cc(Cl)sc2Cl)nc2ccccn12 |  | > 20 | > 100 | inactive
O=Cc1c(-c2ccc([N+](=O)[O-])cc2)nc2sc(Br)cn12 |  |  |  | inactive
COc1cc([N+](=O)[O-])c(OC)cc1-c1nc2sc(C)nn2c1/C=N\NC(=N)N |  | > 20 | > 100 | inactive
N=C(N)N/N=C/c1c(-c2cccc([N+](=O)[O-])c2)nc2sccn12 | > 100 | > 100 | 18.5 | 
Cc1cn2c(C=O)c(-c3ccc(F)cc3)nc2s1 |  |  |  | inactive
Cc1csc2nc(-c3ccc(Cl)c([N+](=O)[O-])c3)c(/C=N/NC(=N)N)n12 | > 100 | 84.4 | 44.8 | 
Cc1nn2c(C=O)c(-c3cc(Cl)sc3Cl)nc2s1 |  |  |  | inactive
O=Cc1c(-c2ccc([N+](=O)[O-])cc2)nc2sc(F)cn12 |  |  |  | inactive
O=[N+]([O-])c1cccc(-c2cn3ccsc3n2)c1F |  |  |  | inactive
Cc1nn2c(/C=N/NC(=N)N)c(-c3cc(Cl)sc3Cl)nc2s1 |  | > 20 | > 100 | inactive
O=[N+]([O-])c1ccc(-c2cn3cc(F)sc3n2)cc1 |  |  |  | inactive
Cc1csc2nc(-c3cccnc3)c(/C=N/NC(=N)N)n12 | > 100 | 34.3 | 100 | 
N=C(N)N/N=C/c1c(-c2cc([N+](=O)[O-])c(Cl)cc2Cl)nc2sccn12 | > 100 | > 100 | 5.93 | 
Nc1nn2c(C=O)c(-c3ccccc3)nc2s1 |  |  |  | inactive
O=Cc1c(-c2cc(Cl)sc2Cl)nc2ccccn12 |  |  |  | inactive
O=Cc1c(-c2ccc(F)c([N+](=O)[O-])c2)nc2sccn12 |  |  |  | inactive
O=Cc1c(-c2cc(F)c(F)cc2F)nc2sccn12 |  |  |  | inactive
O=Cc1c(-c2cc(Cl)sc2Cl)nc2sc(Cl)cn12 |  |  |  | inactive
Cc1cn2cc(-c3ccc(F)c([N+](=O)[O-])c3)nc2s1 |  |  |  | inactive
N#Cc1ccc(-c2cn3cc(Cl)sc3n2)cc1 |  |  |  | inactive
Fc1cccc(F)c1-c1cn2ccsc2n1 |  |  |  | inactive
O=Cc1c(-c2ccc(F)c(F)c2)nc2sccn12 |  |  |  | inactive
O=Cc1c(-c2ccc(Br)c([N+](=O)[O-])c2)nc2sccn12 |  |  |  | inactive
O=[N+]([O-])c1ccc(-c2cn3cc(Br)sc3n2)cc1 |  |  |  | inactive

Compound | IC50 [1] [µM] | IC50 [2] [µM] | IC50 [3] [µM] | inhibition [4]
O=[N+]([O-])c1cc(-c2cn3cc(Cl)sc3n2)ccc1F |  |  |  | inactive
COc1cc([N+](=O)[O-])c(OC)cc1-c1nc2sc(C)nn2c1C=O |  |  |  | inactive
Clc1cc(-c2nc3sc(Cl)cn3c2/C=N/NC2=NCCN2)c(Cl)s1 |  | > 20 | > 100 | inactive
N=C(N)N/N=C\c1c(-c2cc(F)c(F)cc2F)nc2sccn12 |  | > 100 | > 100 | inactive
Cc1nn2c(/C=N/NC(=N)N)c(-c3ccc(Cl)c([N+](=O)[O-])c3)nc2s1 |  | 78 | 94 | 
Cc1cn2cc(-c3ccc(F)cc3)nc2s1 |  |  |  | inactive
COc1cc([N+](=O)[O-])c(OC)cc1-c1cn2c(n1)sc1ccccc12 |  |  |  | inactive
Clc1cc(-c2nc3ccccn3c2/C=N/NC2=NCCN2)c(Cl)s1 |  | > 20 | > 100 | inactive
O=Cc1c(-c2ccc(F)cc2)nc2sccn12 |  |  |  | inactive
O=Cc1c(-c2cccc([N+](=O)[O-])c2F)nc2sccn12 |  |  |  | inactive
N=C(N)N/N=C\c1c(-c2c(F)cccc2F)nc2sccn12 |  | > 100 | > 100 | inactive
COc1cc([N+](=O)[O-])c(OC)cc1-c1nc2sc3ccccc3n2c1C=O |  |  |  | inactive
O=Cc1c(-c2ccc(F)c([N+](=O)[O-])c2)nc2sc(Cl)cn12 |  |  |  | inactive
Clc1cc(-c2cn3cc(Cl)sc3n2)c(Cl)s1 |  |  |  | inactive
N=C(N)N/N=C\c1c(-c2ccc(F)c(F)c2)nc2sccn12 |  | > 100 | > 100 | inactive
Clc1cc(-c2cn3c(n2)sc2ccccc23)c(Cl)s1 |  |  |  | inactive
O=Cc1c(-c2cc(Cl)sc2Cl)nc2sc3ccccc3n12 |  |  |  | inactive
N=C(N)N/N=C/c1c(-c2ccccc2)nc2sc(Cl)cn12 |  | > 100 | > 100 | inactive
N=C(N)N/N=C\c1c(-c2cccc(C(F)(F)F)c2)nc2sccn12 |  | > 100 | > 100 | inactive
Fc1ccccc1-c1cn2ccsc2n1 |  |  |  | inactive
Cc1nn2cc(-c3cc(Cl)sc3Cl)nc2s1 |  |  |  | inactive
O=[N+]([O-])c1cc(-c2cn3ccsc3n2)ccc1Br |  |  |  | inactive
COc1cc([N+](=O)[O-])c(OC)cc1-c1cn2ccccc2n1 |  |  |  | inactive
Cc1nn2c(/C=N/NC3=NCCN3)c(-c3ccc(Cl)c([N+](=O)[O-])c3)nc2s1 |  | > 20 | > 100 | inactive
